Entries after “also recorded” stand apart in the source; their conditions may differ. No end group written: not given here.
Columns and labels:
[1] = system: primary hippocampal neurones on monolayers of fibroblasts; assay: Neurite outgrowth in cocultures of neurones on fibroblast monolayers with or without NCAM-140; type: cell-based, rat; details: 0.54 or 5.4 μM
Method: For cocultures, neurones were seeded on monolayers of fibroblasts, either L-cells or 3T3 cells with or without NCAM-B expression. Neurones were visualised using immunohistochemical staining for growth associated protein 43 kD (GAP43). Briefly, cells were fixed 30 min in 4% paraformaldehyde in phosphate buffered saline (PBS). The primary antibody was rabbit anti-GAP43 1:100 in PBS with 1% fetal bovine serum(FBS), 0.1% bovine serum albumin (BSA), 50 mM glycine, 0.02% NaN3, 2% saponine 1 h at room temperature or overnight at 4° C. The second antibody was biotinylated swine-anti-rabbit immunoglobulins 1:100 in PBS with 1% BSA 1 h at room temperature. The third “layer” was streptavidine coupled to FITC or horse radish peroxidase (HRP) 1:100 1 h at room temperature. Between layers, washings were performed 3×20 min in PBS with 1% BSA. Images of living or stained neurones were captured and analysed by the image analysis program Line Length created at the Protein Laboratory. Putative axons were identified as the longest neurite of each cell. Only neurites longer than […] were considered.
The mean length of neurites on NCAM-expressing fibroblasts was longer than the mean length of neurites on fibroblasts without NCAM expression.

[2] = system: hippocampal cells; assay: Aggregate cultures of dissociated hippocampal cells (NCAM mediated cell adhesion); details: for aggregation of cells (number of cell aggregates): 24 h after seeding, higher number of aggregates reflects inhibition of aggregation; for inhibitory effect on aggregation of hippocampal cells: peptides at 180 μM (FIG. 19)
[3] = system: primary hippocampal neurones; assay: Cell proliferation by BrdU incorporation ELISA; type: cell-based
Method: (§1) Cell proliferation was determined by incorporation of 5-bromo-2′-deoxyuridin in a cell proliferation ELISA system (Amersham Life Science) according to the procedure of the manufacturer. Primary hippocampal neurones were seeded in microtiter plates at a density of 33000 cells per well. […] However, the net effect on proliferation depended on the growth status of cell. […] The net effect depends on the growth status of the cells but under the proper circumstances, a stimulation of proliferation will result.

[4] = molecular target: T1, NCAM Ig1 domain (Rattus norvegicus, UniProt P13596); assay: Plasmon surface resonance analysis of binding to NCAM Ig1; details: dendrimer peptides immobilised on sensor chip CM5, Ig1 in solution, 25° C.
T1 construct: encoding amino acids 1-97 of rat NCAM; made in house; host or cells: Pichia pastoris strain His 4 GS-115 (pHIL-S1 plasmid)
Method: Real-time biomolecular interaction analysis was performed using a BIAlite instrument (Pharmacia Biosensor AB, Sweden). […] Binding of Ig1 to dendrimer peptides: […] of Ig1 or Ig1I at the indicated concentrations were applied. The chip was regenerated by two […] pulses of 5 mM NaOH. Two independent experiments were performed.

[5] = system: primary hippocampal neurones; assay: Neurite outgrowth from single primary hippocampal neurones (length of longest neurite, image analysis); type: cell-based, rat; details: for neurite outgrowth: substrate of plastic or fibronectin, 21 h
Method: The system allows the examination of cell adhesion, cell migration and formation of processes in the treated cells leading to possibly neurite outgrowth. To investigate the latter further, neurite extension from single neurones may be studied. Cells are prepared as in the aggregation study and seeded on a substrate of plastic or fibronectin. The cells are then maintained for a suitable time, whereafter the neurite outgrowth is analysed by a measurement of the neurite extension, for example by a computer-assisted image analysis program. The mean length of the longest neurite of each cell was measured for neurites longer than 10 μM (see FIG. 2). In addition, the mean number of branchpoints per neurite and the mean number of neurites per cell were determined. NCAM Ig1-Ig2 ligands to be tested are added immediately before seeding the cells.
5000 cells/well, corresponding to approximately 4000 cells/cm^2, were seeded in 8 well LabTek Tissue Culture Chamber Slides with a growth surface of Permanox plastic (NUNC A/S, Denmark) or fibronectin (cocultures) and maintained for 20 h as described in Example 7 (1).
To investigate the stimulatory effect on neurite extension, cells were prepared as described and seeded on a substrate of plastic or fibronectin. Cells were then maintained for 21 h and neurite outgrowth was analysed by computer-assisted image analysis using the program Linelength. The mean length of the longest neurite of each cell was measured for neurites longer than 10 μM. In addition, the mean number of branchpoints per neurite and the mean number of neurites per cell were determined.

[6] = system: hippocampal neurons; assay: Neurite outgrowth from hippocampal neurons, stereological total neurite length per cell (ProcessLength); details: for neurite outgrowth (total neurite length per cell): low density culture
[7] = system: PC12 cells; assay: Proliferation and neurite outgrowth of PC12 cells; type: cell-based, rat
Method: The effect of the ligands on proliferation and cell growth was also tested. […] After this initial promotion of proliferation, the peptides stimulate differentiation by increasing neurite outgrowth and at the same time suppressing proliferation. Thus the net effect on proliferation depends on the growth status of the cells. An effect on proliferation has been shown for primary cell cultures from the hippocampus cells and cultures of rat pheochromocytoma cell line PC12 cells. Accordingly, the ligands stimulate neurite outgrowth from and/or proliferation of NCAM presenting cells.
as §1

[8] = system: primary hippocampal cells; assay: Cell growth by Cristal Violet staining; type: cell-based; details: 0.8 μM, 48 h
Method: Cell growth is another way of monitoring proliferation of the cells. Primary hippocampal cells were seeded into 96 well microtiter culture plates (Nunc A/S) at a density of 20.000 or 40.000 per well in defined medium as described above. Cells were grown for 48 h, centrifuged in order to remove medium, fixed in 3.7% formaldehyde in PBS for 15 min and stained with 0.5% Cristal Violet in 20% methanol for 15 min. Stained cells were thoroughly washed with Milli Q purified water, thereafter residual dye was solubilised with 0.1 M sodium citrate in 50% ethanol pH 4.2 and absorbance measured at 550 nm.

[9] = system: neuroblastoma cells; assay: Proliferation of neuroblastoma cells; type: cell-based
[10] = molecular target: T2, NCAM (20-208) (Rattus norvegicus, UniProt P13596); assay: Gel filtration chromatography of NCAM (20-208) dimer formation
T2 construct: made in house

C3d: Dendrimer of four C3 peptide monomers coupled to a backbone consisting of three lysines (ASKKPKRNIKA; also: dendrimer of four monomers coupled to a backbone of three lysines)
NCAM-induced increase in neurite length on NCAM-140 expressing fibroblasts (LBN) [1]: inhibited | neurite extension on fibroblasts without NCAM expression (LVN) [1]: stimulated neurite out-growth | aggregation of cells (number of cell aggregates) [2]: most potent form | number of aggregates of primary hippocampal neurones ([2]; 24 h in culture, 1.07 μM and 2.15 μM): increase in the number of aggregates formed | incorporation of BrdU (neuronal proliferation) ([3]; 0.8 μM): increased incorporation of BrdU

AKKERQRKDTQ (peptide fragment) [D3]
binding to the NCAM Ig1 domain [4]: bound the NCAM-Ig1 in solution; also recorded: bind to the NCAM Ig1 domain | aggregation of cells (number of cell aggregates) [2]: inhibited aggregation of cells; also recorded: higher number of cell aggregates | neurite outgrowth [5]: strongly stimulated neurite outgrowth; also recorded: increase in neurite outgrowth

COc1ccc2c(c1)CC[C@@H]1[C@@H]2CC[C@]2(C)[C@@H](NCCCCCCN3C(=O)C=CC3=O)CC[C@@H]12 [U-73122, reference compound]
effect on Ig2-peptide induced neurite outgrowth ([6]; 3.6 μM Ig2-peptide dendrimer, Ig1 25 μM, α-FGFR 1:2000, CHD 200 μM, U-73122 5 μM (FIG. 23)): completely abrogated

ASKKPKRNIKA (peptide fragment) [C3]
NCAM-induced increase in neurite length on NCAM-140 expressing fibroblasts (LBN) [1]: no difference between the length of neurites on fibroblasts with or without NCAM expression | neurite extension on fibroblasts without NCAM expression (LVN) [1]: neurite extension was stimulated | binding to the NCAM Ig1 domain [4]: bound the NCAM-Ig1 in solution; also recorded: bind to the NCAM Ig1 domain | aggregation of cells (number of cell aggregates) [2]: inhibited aggregation of cells; also recorded: higher number of cell aggregates | neurite outgrowth of PC12 cells [7]: increased neurite outgrowth | proliferation of PC12 cells [7]: inhibitory effect on proliferation | proliferation ([3]; higher concentrations, bell-shaped dose-response curve): inhibited proliferation | cell growth [8]: increase cell growth | concentration of maximal neuritogenic effect [5]: 0.54 µM | branching of neurites ([5]; 0.54 μM): strongly stimulated | number of neurites per cell ([5]; 0.54 μM): strongly stimulated | length of the longest neurite ([5]; 0.54 μM, plastic (FIG. 11)): strongly stimulated | neurite outgrowth [5]: strongly stimulated neurite outgrowth; also recorded: increase in neurite outgrowth | proliferation of neuroblastoma cells [9]: promoted proliferation

GRILARGEINFK (peptide fragment) [Ig2-p]
aggregation of cells (number of cell aggregates) [2]: inhibited aggregation of cells | neurite outgrowth (total neurite length per cell) ([6]; 24 h): strongly stimulated neurite outgrowth

D4-dendrimer: Four D4 peptide-monomers coupled to a backbone consisting of three lysines (ARALNWGAKPK; also: dendrimer of four monomers coupled to a backbone of three lysines)
aggregation of cells (number of cell aggregates) [2]: increased the number of aggregates formed

COC(=O)/C=C/c1cc(O)ccc1O [erbstatin analogue, reference compound]
effect on the stimulatory effect of C3 on neurite extension [5]: inhibit the stimulatory effect of C3 on neurite extension

D3-dendrimer: Four D3 peptide-monomers coupled to a backbone consisting of three lysines (AKKERQRKDTQ; also: dendrimer of four monomers coupled to a backbone of three lysines)
aggregation of cells (number of cell aggregates) [2]: increased the number of aggregates formed

ARALNWGAKPK (peptide fragment) [D4]
binding to the NCAM Ig1 domain [4]: bound the NCAM-Ig1 in solution; also recorded: bind to the NCAM Ig1 domain | aggregation of cells (number of cell aggregates) [2]: inhibited aggregation of cells; also recorded: higher number of cell aggregates | neurite outgrowth [5]: strongly stimulated neurite outgrowth; also recorded: increase in neurite outgrowth

GSILASGSSNFK [P2-4S]
inhibitory effect on aggregation of hippocampal cells ([2]; 24 h): only a slight inhibitory effect | neurite outgrowth (total neurite length per cell) ([6]; 24 h): no neuritogenic effect; also recorded: no stimulatory effect

GEISVGESKFFL (peptide fragment) [Ig1-p]
aggregation of cells ([2]; 24 h, 250 μg/ml (FIG. 24)): inhibited aggregation of cells | neurite outgrowth ([6]; 24 h, 5 μg/ml (FIG. 24)): promote neurite outgrowth

pertussis toxin [reference compound]
effect on the stimulatory effect of C3 on neurite extension [5]: inhibit the stimulatory effect of C3 on neurite extension

COc1ccc(CCN(C)CCCC(C#N)(c2ccc(OC)c(OC)c2)C(C)C)cc1OC (stereo not shown) [verapamil, reference compound]
effect on the stimulatory effect of C3 on neurite extension [5]: inhibit the stimulatory effect of C3 on neurite extension

omega-conotoxin GVIA [reference compound]
effect on the stimulatory effect of C3 on neurite extension [5]: inhibit the stimulatory effect of C3 on neurite extension

GSILASGESNFK (peptide fragment) [P2-3S]
inhibitory effect on aggregation of hippocampal cells ([2]; 24 h): no inhibitory effect | neurite outgrowth (total neurite length per cell) ([6]; 24 h): no neuritogenic effect; also recorded: no stimulatory effect

B1: Ig1-2: Unmutated recombinant double Ig domain (Ig1-Ig2) of NCAM, NCAM (20-208) (protein)
chain: LQVDIVPSQGEISVGESKFFLCQVAGDAKDKDISWFSPNGEKLSPNQQRISVVWNDDDSSTLTIYNANIDDAGIYKCVVTAEDGTQSEATVNVKIFQKLMFKNAPTPQEFKEGEDAVIVCDVVSSLPPTIIWKHKGRDVILKKDVRFIVLSNNYLQIRGIKKTDEGTYRCEGRILARGEINFKDIQVIV
dimer formation (elution in gel filtration) [10]: elutes as a dimer | neurite outgrowth (total neurite length per cell) ([6]; 24 h): only slight, if any, effect

B2: mutated double domain: NCAM (20-208) double Ig domain with mutations R192A, R196A and E198A (protein)
chain: LQVDIVPSQGEISVGESKFFLCQVAGDAKDKDISWFSPNGEKLSPNQQRISVVWNDDDSSTLTIYNANIDDAGIYKCVVTAEDGTQSEATVNVKIFQKLMFKNAPTPQEFKEGEDAVIVCDVVSSLPPTIIWKHKGRDVILKKDVRFIVLSNNYLQIRGIKKTDEGTYRCEGAILAAGAINFKDIQVIV
neurite outgrowth (total neurite length per cell) ([6]; 24 h): inhibited in a dose dependent manner

Source: patent US7402560B2, “NCAM binding compounds” (priority 1998, dated 2008)
